Measured values: patent US8889712B2, “IAP antagonists” (Bristol-Myers Squibb Company, priority 2012, dated 2014)
Where two headings read alike, the source gives them in different places.

Assays:
XIAP BIR3 = molecular target: T1, XIAP BIR3 (Homo sapiens, UniProt P98170); experiment: XIAP-BIR3/SMAC Homogeneous Time Resolved Fluorescence (HTRF) Assay; format: binding
T1 construct: His-BIR3 (241-356, XIAP)
Outline: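 Competition HTRF between XIAP-BIR3 and SMAC; reaction 60 min at room temperature, then anti-6×His-terbium Fab detection for a further 30 min.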

XIAP BIR2-3 = molecular target: T2, XIAP BIR2-3 (Homo sapiens, UniProt P98170, C202A/C213G); experiment: XIAP-BIR2-3 dimeric SMAC Peptide Homogeneous Time Resolved Fluorescence (HTRF) Assay; format: binding
T2 construct: His-BIR2-3 (125-356, C202A/C213G, XIAP)
T2 sequence (P98170 125-356 C202A/C213G): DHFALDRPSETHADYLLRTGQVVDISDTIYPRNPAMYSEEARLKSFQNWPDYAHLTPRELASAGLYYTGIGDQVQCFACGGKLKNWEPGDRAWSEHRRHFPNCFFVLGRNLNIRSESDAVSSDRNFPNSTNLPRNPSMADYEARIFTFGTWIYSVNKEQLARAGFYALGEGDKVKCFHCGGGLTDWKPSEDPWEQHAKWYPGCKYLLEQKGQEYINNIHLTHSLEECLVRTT
Description: B. […] Assays were performed in black, flat-bottom, 384-well plates. […] Compounds were dissolved at 3 mM in dimethylsulfoxide (DMSO) and evaluated at eleven serially diluted concentrations. IC50 and Ki values were derived by non-linear regression analysis.

[1] = 1 nM N-His-BIR3 (241-356, XIAP), 5 nM fluorescein labeled SMAC peptide, HTRF signal, read-out: XIAP BIR3 IC50
[2] = 0.5 nM N-His-BIR2-3 (125-356, C202A/C213G, XIAP), 20 nM fluorescein labeled dimeric SMAC peptide, HTRF signal, read-out: XIAP BIR2-3 IC50

T1 sequence (P98170 241-356): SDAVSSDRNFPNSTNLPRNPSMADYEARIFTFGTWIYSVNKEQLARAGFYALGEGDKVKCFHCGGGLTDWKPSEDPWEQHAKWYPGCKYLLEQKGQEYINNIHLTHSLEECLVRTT

| IC50 (XIAP BIR3; [1]) [nM] | IC50 (XIAP BIR2-3; [2]) [nM] | SMILES | IC50 (XIAP BIR3) [nM] | IC50 (XIAP BIR2-3) [nM] |
| --- | --- | --- | --- | --- |
| 0.4 | 0.5 | CN[C@@H](C)C(=O)N[C@H](C(=O)N1C[C@@H](c2ccc3c(c2)CN(C(=O)[C@@H](NC(=O)[C@H](C)NC)C(C)(C)C)[C@H](C(=O)N[C@@H]2CCCc4ccccc42)C3)C[C@H]1C(=O)N[C@@H](Cc1ccccc1)C(=O)NS(=O)(=O)c1ccc2ccccc2c1)C(C)(C)C [Example 49, (S)-2-((S)-3,3-Dimethyl-2-((S)-2-(methylamino)propanamido)butanoyl)-7-((3R,5S)-1-((S)-3,3-dimethyl-2-((S)-2-(methylamino)propanamido)butanoyl)-5-(((S)-1-(naphthalene-2-sulfonamido)-1-oxo-3-phenylpropan-2-yl)carbamoyl)pyrrolidin-3-yl)-N-((R)-1,2,3,4-tetrahydronaphthalen-1-yl)-1,2,3,4-tetrahydroisoquinoline-3-carboxamide] |  |  |
| 19.4 | 9.6 | CCNC(=O)[C@H](Cc1ccccc1)NC(=O)[C@@H]1C[C@H](c2ccc3c(c2)CN(C(=O)[C@@H](NC(=O)[C@H](C)NC)C(C)(C)C)[C@H](C(=O)N[C@@H]2CCCc4ccccc42)C3)CN1C(=O)[C@@H](NC(=O)[C@H](C)NC)C(C)(C)C [Example 51, (S)-2-((S)-3,3-Dimethyl-2-((S)-2-(methylamino)propanamido)butanoyl)-7-((3R,5S)-1-((S)-3,3-dimethyl-2-((S)-2-(methylamino)propanamido)butanoyl)-5-(((S)-1-(ethylamino)-1-oxo-3-phenylpropan-2-yl)carbamoyl)pyrrolidin-3-yl)-N-((R)-1,2,3,4-tetrahydronaphthalen-1-yl)-1,2,3,4-tetrahydroisoquinoline-3-carboxamide] |  |  |
| 3.4 | 1.2 | CN[C@@H](C)C(=O)N[C@H](C(=O)N1C[C@@H](c2ccc3c(c2)CN(C(=O)[C@@H](NC(=O)[C@H](C)NC)C(C)(C)C)[C@H](C(=O)N[C@@H]2CCCc4ccccc42)C3)C[C@H]1C(=O)N[C@@H](Cc1ccccc1)C(=O)Nc1nncs1)C(C)(C)C [Example 52, (S)-7-((3R,5S)-5-(((S)-1-((1,3,4-Thiadiazol-2-yl)amino)-1-oxo-3-phenylpropan-2-yl)carbamoyl)-1-((S)-3,3-dimethyl-2-((S)-2-(methylamino)propanamido)butanoyl)pyrrolidin-3-yl)-2-((S)-3,3-dimethyl-2-((S)-2-(methylamino)propanamido)butanoyl)-N-((R)-1,2,3,4-tetrahydronaphthalen-1-yl)-1,2,3,4-tetrahydroisoquinoline-3-carboxamide] |  |  |
| 6.8 | 2.9 | CN[C@@H](C)C(=O)N[C@H](C(=O)N1C[C@@H](c2ccc3c(c2)CN(C(=O)[C@@H](NC(=O)[C@H](C)NC)C(C)(C)C)[C@H](C(=O)N[C@@H]2CCCc4ccccc42)C3)C[C@H]1C(=O)N[C@@H](Cc1ccccc1)C(=O)N(C)CCc1ccccn1)C(C)(C)C [Example 54, (S)-2-((S)-3,3-Dimethyl-2-((S)-2-(methylamino)propanamido)butanoyl)-7-((3R,5S)-1-((S)-3,3-dimethyl-2-((S)-2-(methylamino)propanamido)butanoyl)-5-(((S)-1-(methyl(2-(pyridin-2-yl)ethyl)amino)-1-oxo-3-phenylpropan-2-yl)carbamoyl)pyrrolidin-3-yl)-N-((R)-1,2,3,4-tetrahydronaphthalen-1-yl)-1,2,3,4-tetrahydroisoquinoline-3-carboxamide] |  |  |
| 37.7 | 8.5 | CN[C@@H](C)C(=O)N[C@H](C(=O)N1C[C@@H](c2ccc3c(c2)CN(C(=O)[C@@H](NC(=O)[C@H](C)NC)C(C)(C)C)[C@H](C(=O)N[C@@H]2CCCc4ccccc42)C3)C[C@H]1C(=O)N[C@@H](Cc1ccccc1)C(=O)N(C)CCOC)C(C)(C)C [Example 55, (S)-2-((S)-3,3-Dimethyl-2-((S)-2-(methylamino)propanamido)butanoyl)-7-((3R,5S)-1-((S)-3,3-dimethyl-2-((S)-2-(methylamino)propanamido)butanoyl)-5-(((S)-1-((2-methoxyethyl)(methyl)amino)-1-oxo-3-phenylpropan-2-yl)carbamoyl)pyrrolidin-3-yl)-N-((R)-1,2,3,4-tetrahydronaphthalen-1-yl)-1,2,3,4-tetrahydroisoquinoline-3-carboxamide] |  |  |
| 9.9 | 2.6 | CN[C@@H](C)C(=O)N[C@H](C(=O)N1C[C@@H](c2ccc3c(c2)CN(C(=O)[C@@H](NC(=O)[C@H](C)NC)C(C)(C)C)[C@H](C(=O)N[C@@H]2CCCc4ccccc42)C3)C[C@H]1C(=O)N[C@@H](Cc1ccccc1)C(=O)Nc1ccc(-c2cnco2)cc1)C(C)(C)C [Example 57, (S)-2-((S)-3,3-Dimethyl-2-((S)-2-(methylamino)propanamido)butanoyl)-7-((3R,5S)-1-((S)-3,3-dimethyl-2-((S)-2-(methylamino)propanamido)butanoyl)-5-(((S)-1-((4-(oxazol-5-yl)phenyl)amino)-1-oxo-3-phenylpropan-2-yl)carbamoyl)pyrrolidin-3-yl)-N-((R)-1,2,3,4-tetrahydronaphthalen-1-yl)-1,2,3,4-tetrahydroisoquinoline-3-carboxamide] |  |  |

The remaining lines, values behind:

| SMILES | IC50 (XIAP BIR3; [1]) [nM] | IC50 (XIAP BIR2-3; [2]) [nM] | IC50 (XIAP BIR3) [nM] | IC50 (XIAP BIR2-3) [nM] |
| --- | --- | --- | --- | --- |
| CN[C@@H](C)C(=O)N[C@H](C(=O)N1C[C@@H](c2ccc3c(c2)CN(C(=O)[C@@H](NC(=O)[C@H](C)NC)C(C)(C)C)[C@H](C(=O)N[C@@H]2CCCc4ccccc42)C3)C[C@H]1C(=O)N[C@@H](Cc1ccccc1)C(=O)N1CCOCC1)C(C)(C)C [Example 47, (S)-2-((S)-3,3-Dimethyl-2-((S)-2-(methylamino)propanamido)butanoyl)-7-((3R,5S)-1-((S)-3,3-dimethyl-2-((S)-2-(methylamino)propanamido)butanoyl)-5-(((S)-1-morpholino-1-oxo-3-phenylpropan-2-yl)carbamoyl)pyrrolidin-3-yl)-N-((R)-1,2,3,4-tetrahydronaphthalen-1-yl)-1,2,3,4-tetrahydroisoquinoline-3-carboxamide] | 17.5 | 2.4 |  |  |
| CN[C@@H](C)C(=O)N[C@H](C(=O)N1C[C@@H](c2ccc3c(c2)CN(C(=O)[C@@H](NC(=O)[C@H](C)NC)C(C)(C)C)[C@H](C(=O)N[C@@H]2CCCc4ccccc42)C3)C[C@H]1C(=O)N[C@@H](Cc1ccccc1)C(=O)NS(=O)(=O)c1ccccc1)C(C)(C)C [Example 48, (S)-2-((S)-3,3-Dimethyl-2-((S)-2-(methylamino)propanamido)butanoyl)-7-((3R,5S)-1-((S)-3,3-dimethyl-2-((S)-2-(methylamino)propanamido)butanoyl)-5-(((S)-1-oxo-3-phenyl-1-(phenylsulfonamido)propan-2-yl)carbamoyl)pyrrolidin-3-yl)-N-((R)-1,2,3,4-tetrahydronaphthalen-1-yl)-1,2,3,4-tetrahydroisoquinoline-3-carboxamide] |  |  | 0.8 | 0.7 |
| CN[C@@H](C)C(=O)N[C@H](C(=O)N1C[C@@H](c2ccc3c(c2)CN(C(=O)[C@@H](NC(=O)[C@H](C)NC)C(C)(C)C)[C@H](C(=O)N[C@@H]2CCCc4ccccc42)C3)C[C@H]1C(=O)N[C@@H](Cc1ccccc1)C(=O)NS(=O)(=O)C1CC1)C(C)(C)C [Example 50, (S)-7-((3R,5S)-5-(((S)-1-(Cyclopropanesulfonamido)-1-oxo-3-phenylpropan-2-yl)carbamoyl)-1-((S)-3,3-dimethyl-2-((S)-2-(methylamino)propanamido)butanoyl)pyrrolidin-3-yl)-2-((S)-3,3-dimethyl-2-((S)-2-(methylamino)propanamido)butanoyl)-N-((R)-1,2,3,4-tetrahydronaphthalen-1-yl)-1,2,3,4-tetrahydroisoquinoline-3-carboxamide] | 0.9 | 1.2 |  |  |
| CN[C@@H](C)C(=O)N[C@H](C(=O)N1C[C@@H](c2ccc3c(c2)CN(C(=O)[C@@H](NC(=O)[C@H](C)NC)C(C)(C)C)[C@H](C(=O)N[C@@H]2CCCc4ccccc42)C3)C[C@H]1C(=O)N[C@@H](Cc1ccccc1)C(=O)N(C)CCC(C)C)C(C)(C)C [Example 53, (S)-2-((S)-3,3-Dimethyl-2-((S)-2-(methylamino)propanamido)butanoyl)-7-((3R,5S)-1-((S)-3,3-dimethyl-2-((S)-2-(methylamino)propanamido)butanoyl)-5-(((S)-1-(isopentyl(methyl)amino)-1-oxo-3-phenylpropan-2-yl)carbamoyl)pyrrolidin-3-yl)-N-((R)-1,2,3,4-tetrahydronaphthalen-1-yl)-1,2,3,4-tetrahydroisoquinoline-3-carboxamide] | 53.9 | 86.9 |  |  |
| CN[C@@H](C)C(=O)N[C@H](C(=O)N1C[C@@H](c2ccc3c(c2)CN(C(=O)[C@@H](NC(=O)[C@H](C)NC)C(C)(C)C)[C@H](C(=O)N[C@@H]2CCCc4ccccc42)C3)C[C@H]1C(=O)N[C@@H](Cc1ccccc1)C(=O)NC(C)C)C(C)(C)C [Example 56, (S)-2-((S)-3,3-Dimethyl-2-((S)-2-(methylamino)propanamido)butanoyl)-7-((3R,5S)-1-((S)-3,3-dimethyl-2-((S)-2-(methylamino)propanamido)butanoyl)-5-(((S)-1-(isopropylamino)-1-oxo-3-phenylpropan-2-yl)carbamoyl)pyrrolidin-3-yl)-N-((R)-1,2,3,4-tetrahydronaphthalen-1-yl)-1,2,3,4-tetrahydroisoquinoline-3-carboxamide] |  |  | 8.8 | 2 |
